Details in all cases: PC-3
Assay [1] addresses T1, Phosphorylase b kinase gamma catalytic chain, liver/testis isoform (Homo sapiens) (UniProt P15735).
T1 sequence (whole entry): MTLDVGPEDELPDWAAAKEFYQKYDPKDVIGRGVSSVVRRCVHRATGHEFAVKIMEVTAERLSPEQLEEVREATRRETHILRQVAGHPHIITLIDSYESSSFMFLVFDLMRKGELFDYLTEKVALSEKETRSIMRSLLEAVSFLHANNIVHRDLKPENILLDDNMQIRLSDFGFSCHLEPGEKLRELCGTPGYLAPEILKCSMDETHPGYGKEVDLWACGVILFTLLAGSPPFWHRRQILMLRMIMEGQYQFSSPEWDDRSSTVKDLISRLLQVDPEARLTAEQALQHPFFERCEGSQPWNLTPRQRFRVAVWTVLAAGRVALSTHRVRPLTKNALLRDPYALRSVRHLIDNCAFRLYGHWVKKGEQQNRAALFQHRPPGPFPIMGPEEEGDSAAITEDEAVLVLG
As to the kind of experiment: Inhibition of PHKgamma2 in human PC3 cell lysates at 10 uM using desthiobiotin-tagged ATP probe AX9989 followed by trypsinization by LC/MS analysis.

In assay [2] the target is T2, Ephrin type-B receptor 2 (Homo sapiens) (UniProt P29323).
T2 sequence (whole entry): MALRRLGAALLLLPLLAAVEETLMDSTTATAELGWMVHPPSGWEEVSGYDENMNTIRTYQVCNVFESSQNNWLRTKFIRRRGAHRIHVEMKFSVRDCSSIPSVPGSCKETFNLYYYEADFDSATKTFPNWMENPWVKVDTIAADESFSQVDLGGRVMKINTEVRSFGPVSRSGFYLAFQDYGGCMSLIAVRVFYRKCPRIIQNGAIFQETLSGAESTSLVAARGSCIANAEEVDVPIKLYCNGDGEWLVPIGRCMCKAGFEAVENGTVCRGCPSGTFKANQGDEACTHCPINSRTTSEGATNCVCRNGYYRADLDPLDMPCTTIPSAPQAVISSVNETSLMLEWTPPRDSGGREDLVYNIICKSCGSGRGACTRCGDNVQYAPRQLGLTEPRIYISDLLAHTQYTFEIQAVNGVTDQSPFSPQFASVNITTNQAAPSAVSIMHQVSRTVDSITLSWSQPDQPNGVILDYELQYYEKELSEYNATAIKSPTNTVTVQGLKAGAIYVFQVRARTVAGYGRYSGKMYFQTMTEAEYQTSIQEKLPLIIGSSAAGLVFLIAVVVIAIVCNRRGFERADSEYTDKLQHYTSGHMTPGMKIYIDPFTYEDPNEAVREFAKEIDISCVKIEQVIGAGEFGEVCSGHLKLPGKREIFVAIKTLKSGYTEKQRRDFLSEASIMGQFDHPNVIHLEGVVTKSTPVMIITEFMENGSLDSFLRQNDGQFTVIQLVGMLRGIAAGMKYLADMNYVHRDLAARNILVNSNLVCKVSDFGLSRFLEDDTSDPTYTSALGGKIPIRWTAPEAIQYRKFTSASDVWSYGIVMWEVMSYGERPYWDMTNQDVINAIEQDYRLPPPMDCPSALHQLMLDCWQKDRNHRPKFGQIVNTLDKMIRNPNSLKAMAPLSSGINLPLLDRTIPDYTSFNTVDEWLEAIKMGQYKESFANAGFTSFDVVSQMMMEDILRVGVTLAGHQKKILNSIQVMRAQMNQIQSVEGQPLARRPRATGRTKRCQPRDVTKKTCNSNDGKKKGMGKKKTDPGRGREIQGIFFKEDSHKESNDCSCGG
Description: Inhibition of EphB2 in human PC3 cell lysates at 10 uM using desthiobiotin-tagged ATP probe AX9989 followed by trypsinization by LC/MS analysis.

Assay [3] deals with T3, SNF-related serine/threonine-protein kinase (Homo sapiens) (UniProt Q9NRH2).
T3 sequence (whole entry): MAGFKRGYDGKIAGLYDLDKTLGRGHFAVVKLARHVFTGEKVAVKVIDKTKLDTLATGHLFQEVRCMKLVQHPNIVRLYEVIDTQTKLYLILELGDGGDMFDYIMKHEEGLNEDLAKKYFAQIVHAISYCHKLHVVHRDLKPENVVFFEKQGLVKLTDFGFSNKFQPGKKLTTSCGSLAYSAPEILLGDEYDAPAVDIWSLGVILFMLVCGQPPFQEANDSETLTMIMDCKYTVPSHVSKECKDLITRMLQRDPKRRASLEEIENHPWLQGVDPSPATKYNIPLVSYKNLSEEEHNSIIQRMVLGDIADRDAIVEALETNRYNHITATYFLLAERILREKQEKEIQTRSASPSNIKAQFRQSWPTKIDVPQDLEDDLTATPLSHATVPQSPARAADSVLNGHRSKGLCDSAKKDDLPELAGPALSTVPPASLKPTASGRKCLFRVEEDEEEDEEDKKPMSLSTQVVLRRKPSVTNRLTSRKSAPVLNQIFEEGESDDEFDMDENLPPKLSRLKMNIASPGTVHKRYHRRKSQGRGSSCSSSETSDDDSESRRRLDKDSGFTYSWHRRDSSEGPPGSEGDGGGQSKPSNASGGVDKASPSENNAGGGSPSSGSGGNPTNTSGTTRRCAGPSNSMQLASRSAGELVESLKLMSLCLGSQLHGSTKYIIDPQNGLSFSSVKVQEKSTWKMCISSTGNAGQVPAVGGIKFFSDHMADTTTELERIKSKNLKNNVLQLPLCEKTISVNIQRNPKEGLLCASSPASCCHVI
Description: Inhibition of SNRK in human PC3 cell lysates at 10 uM using desthiobiotin-tagged ATP probe AX9989 followed by trypsinization by LC/MS analysis.

In assay [4] the target is Cyclin-dependent kinase 2 (Homo sapiens) (UniProt P24941). Description: Inhibition of CDK2 in human PC3 cell lysates at 10 uM using desthiobiotin-tagged ATP probe AX9989 followed by trypsinization by LC/MS analysis.
Assay [5] deals with Serine/threonine-protein kinase 10 (Homo sapiens) (UniProt O94804). As to the kind of experiment: Inhibition of LOK in human PC3 cell lysates at 10 uM using desthiobiotin-tagged ATP probe AX9989 followed by trypsinization by LC/MS analysis.

The inhibition is how much of the control response was suppressed.

Serine/threonine-protein kinase 10 (Homo sapiens), sequence (O94804 whole entry, looked up): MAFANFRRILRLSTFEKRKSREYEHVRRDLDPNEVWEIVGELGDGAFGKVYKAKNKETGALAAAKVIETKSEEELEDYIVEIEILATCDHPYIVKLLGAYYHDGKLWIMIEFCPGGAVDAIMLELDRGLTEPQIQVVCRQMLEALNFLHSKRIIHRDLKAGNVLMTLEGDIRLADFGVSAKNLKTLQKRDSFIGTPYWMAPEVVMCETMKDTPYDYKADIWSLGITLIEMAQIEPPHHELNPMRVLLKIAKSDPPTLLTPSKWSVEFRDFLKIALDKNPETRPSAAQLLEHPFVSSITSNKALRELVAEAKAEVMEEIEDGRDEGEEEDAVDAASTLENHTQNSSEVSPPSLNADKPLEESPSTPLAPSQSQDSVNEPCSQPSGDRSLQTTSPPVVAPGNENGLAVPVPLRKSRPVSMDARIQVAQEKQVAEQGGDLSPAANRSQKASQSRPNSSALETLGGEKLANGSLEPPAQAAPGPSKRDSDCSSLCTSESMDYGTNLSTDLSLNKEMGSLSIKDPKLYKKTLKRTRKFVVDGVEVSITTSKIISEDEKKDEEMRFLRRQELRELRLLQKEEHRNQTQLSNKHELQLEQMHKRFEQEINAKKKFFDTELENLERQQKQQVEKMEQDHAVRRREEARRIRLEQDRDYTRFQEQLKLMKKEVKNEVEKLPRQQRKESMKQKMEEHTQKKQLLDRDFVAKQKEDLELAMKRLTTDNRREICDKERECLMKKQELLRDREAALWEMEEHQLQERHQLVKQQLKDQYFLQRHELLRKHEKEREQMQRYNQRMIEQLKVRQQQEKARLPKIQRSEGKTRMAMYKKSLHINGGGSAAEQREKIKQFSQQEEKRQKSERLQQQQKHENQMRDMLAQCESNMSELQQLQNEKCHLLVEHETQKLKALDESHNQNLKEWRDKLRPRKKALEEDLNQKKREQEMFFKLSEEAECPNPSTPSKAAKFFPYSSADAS

Turning to `O=C(NC1(c2ccc(F)cc2)CC1)c1ccc2nc(N[C@H]3CC[C@H](O)CC3)c3nccn3c2c1`, the inhibition in assay [1], in assay [2], in assay [3], in assay [4] and in assay [5] was under 35% throughout.
For `C[C@H](NC(=O)c1ccc2nc(N[C@H]3CC[C@H](O)CC3)c3nccn3c2c1)c1ccccc1`, the inhibition in assay [1], in assay [2], in assay [3], in assay [4] and in assay [5] was under 35% each time.
As to `O=C(O)c1ccc2nc(N[C@H]3CC[C@H](O)CC3)c3nccn3c2c1`, the inhibition in assay [1] was under 35%; in assay [2], under 35%; in assay [3], under 35%; in assay [4] it was 59.1%; in assay [5] it was under 35%.
With `O=C(NC1(c2ccccc2)CC1)c1ccc2nc(N[C@H]3CC[C@H](O)CC3)c3nccn3c2c1`, the inhibition in assay [1], in assay [2], in assay [3], in assay [4] and in assay [5] was under 35% in each case.
For the compound `O=C(N[C@H](CO)c1ccccc1)c1ccc2nc(N[C@H]3CC[C@H](O)CC3)c3nccn3c2c1`, the inhibition in assay [1], in assay [2], in assay [3], in assay [4] and in assay [5] was under 35% throughout.
On to `C[C@@H](NC(=O)c1ccc2nc(N[C@H]3CC[C@H](O)CC3)c3nccn3c2c1)c1ccccc1`, for which the inhibition in assay [1], in assay [2], in assay [3], in assay [4] and in assay [5] was under 35% in each case.
Take `CC[C@@H](NC(=O)c1ccc2nc(N[C@H]3CC[C@H](O)CC3)c3nccn3c2c1)c1ccccc1`: the inhibition in assay [1], in assay [2], in assay [3], in assay [4] and in assay [5] was under 35% each time.
On to `CCC[C@@H](NC(=O)c1ccc2nc(N[C@H]3CC[C@H](O)CC3)c3nccn3c2c1)c1ccccc1`, for which the inhibition in assay [1], in assay [2], in assay [3], in assay [4] and in assay [5] was under 35% in each case.
Turning to `NC(=O)c1ccc2nc(N[C@H]3CC[C@H](O)CC3)c3nccn3c2c1`, the inhibition in assay [1], in assay [2], in assay [3], in assay [4] and in assay [5] was under 35% in each case.
`CC(C)(NC(=O)c1ccc2nc(N[C@H]3CC[C@H](O)CC3)c3nccn3c2c1)c1ccccc1`: the inhibition in assay [1], in assay [2], in assay [3], in assay [4] and in assay [5] was under 35% in each case.
`O=C(NC1(c2ccccc2)CCC1)c1ccc2nc(N[C@H]3CC[C@H](O)CC3)c3nccn3c2c1`: the inhibition in assay [1], in assay [2], in assay [3], in assay [4] and in assay [5] was under 35% throughout.
Consider `O=C(NC1(Cc2ccc(F)cc2)CC1)c1ccc2nc(N[C@H]3CC[C@H](O)CC3)c3nccn3c2c1`, for which the inhibition in assay [1], in assay [2], in assay [3], in assay [4] and in assay [5] was under 35% throughout.

The values are drawn from ChEMBL document CHEMBL2417377, “Hit-to-lead optimization and kinase selectivity of imidazo[1,2-a]quinoxalin-4-amine derived JNK1 inhibitors” (Bioorg Med Chem Lett, 2013).
